Source: patent US20240300932A1, “N-PHENYLIMINE DERIVATIVE AND PREPARATION METHOD AND USE THEREOF” (Guizhou University, priority 2023, published 2024)

Tests used:
Assay in all cases: Post-emergence herbicidal activity test (stem and leaf spray, pot culture)
Format in all cases: in vivo
Settings in all cases: 3 weeks after spraying
[1] = system: Abutilon theophrasti
Experimental: (§1) The weeds were cultivated in a 180 mm×140 mm plastic nutrient pot by a pot-culture method, placed in an enamel tray, and the plastic nutrient pots were filled with surface soil (⅘ of a depth) collected from a farmland and air-dried and sieved, and a soil humidity was controlled at 20% in the initial stage. Weed seeds with plump and uniform grains were selected, soaked in warm water at 25° C. for 6 h, and germinated in a biochemical incubator (dark) at 28° C. The freshly exposed weed seeds were evenly placed on the soil surface, and then covered with 0.5 cm to 1 cm of soil according to the size of the seeds. The weeds are cultivated in a controlled sunlight greenhouse at 20° C. to 30° C., under natural light, and a relative humidity of 57% to 72%. The soil was loam, including 1.63% of organic matters, with a pH value of 7, 84.3 mg/kg of alkaline nitrogen, 38.5 mg/kg of available phosphorus, and 82.1 mg/kg of available potassium.
(§2) Each treatment was repeated 2 times, each treatment included 12 pots, and 20 weed seeds were sown in each pot. Pesticide was applied in the test for 1 time in total. When the weeds grew to 1.5- to 2-leaf stage, thinning was conducted, with 10 weeds in each pot, and 30 weeds were kept in each treatment.
(§3) The cultivated weeds were placed on trays with an area of 0.1 m^2, and stems and leaves were sprayed with a sprayer. After applying a pesticide, the pesticide applied weeds were moved into a greenhouse for routine cultivation.
(§4) 2 weeks after sowing, the test plants were treated at the 2- to 3-leaf stage: the compounds of the present disclosure for testing were dissolved in acetone separately, and added with Tween 80, an emulsifiable oil of 1.5 liters/ha methyl oleate was added as a synergist, and an obtained mixture was diluted with certain water to a certain concentration solution. The solution was sprayed onto the plants using a spray tower. After spraying, the weeds were cultivated in the greenhouse for 3 weeks, and the experimental effects on the weeds were counted. The effective concentrations of the compounds were 10 g/mu, 5 g/mu, and 2.5 g/mu, the experiment was repeated three times, and an average result was taken.
(§5) The activity level criteria for plant destruction (i.e. growth control rate) are as follows: • Grade 5: the growth control rate is greater than or equal to 85%; • Grade 4: the growth control rate is greater than or equal to 60% and less than 85%; • Grade 3: the growth control rate is greater than or equal to 40% and less than 60%; • Grade 2: the growth control rate is greater than or equal to 20% and less than 40%; • Grade 1: the growth control rate is greater than or equal to 5% and less than 20%; and • Grade 0: the growth control rate is less than 5%.
(§6) The growth control rate is a fresh weight control rate.

[2] = system: Echinochloa crusgalli
Experimental: as §1, §2, §3, §4, §5, §6

[3] = system: Portulaca oleracea
Experimental: as §1, §2, §3, §4, §5, §6

[4] = system: Setaria viridis
Experimental: as §1, §2, §3, §4, §5, §6

[5] = system: Amaranthus retroflexus
Experimental: as §1, §2, §3, §4, §5, §6

[6] = system: Trifoliumre pensL.
Experimental: (1) Post-Emergence Stem and Leaf Spray Treatment: The weeds were cultivated in a 180 mm×140 mm plastic nutrient pot by a pot-culture method, placed in an enamel tray, and the plastic nutrient pots were filled with surface soil (⅘ of a depth) collected from a farmland and air-dried and sieved, and a soil humidity was controlled at 20% in the initial stage. Weed seeds with plump and uniform grains were selected, soaked in warm water at 25° C. for 6 h, and germinated in a biochemical incubator (dark) at 28° C. The freshly exposed weed seeds were evenly placed on the soil surface, and then covered with 0.5 cm to 1 cm of soil according to the size of the seeds. The weeds are cultivated in a controlled sunlight greenhouse at 20° C. to 30° C., under natural light, and a relative humidity of 57% to 72%. The soil was loam, including 1.63% of organic matters, with a pH value of 7, 84.3 mg/kg of alkaline nitrogen, 38.5 mg/kg of available phosphorus, and 82.1 mg/kg of available potassium. Each treatment was repeated 2 times, each treatment included 12 pots, and 20 weed seeds were sown in each pot. Pesticide was applied in the test for 1 time in total. When the weeds grew to 1.5- to 2-leaf stage, thinning was conducted, with 10 weeds in each pot, and 30 weeds were kept in each treatment. The cultivated weeds were placed on trays with an area of 0.1 m^2, and stems and leaves were sprayed with a sprayer. After applying a pesticide, the pesticide applied weeds were moved into a greenhouse for routine cultivation. 2 weeks after sowing, the test plants were treated at the 2- to 3-leaf stage: the compounds of the present disclosure for testing were dissolved in acetone separately, and added with Tween 80, an emulsifiable oil of 1.5 liters/ha methyl oleate was added as a synergist, and an obtained mixture was diluted with certain water to a certain concentration solution. The solution was sprayed onto the plants using a spray tower. After spraying, the weeds were cultivated in the greenhouse for 3 weeks, and the experimental effects on the weeds were counted. The effective concentrations of the compounds were 10 g/mu, 5 g/mu, and 2.5 g/mu, the experiment was repeated three times, and an average result was taken.

Compound | Post-emergence herbicidal activity, A. theophrasti (grade) ([1]; dosage 2.5 g/mu) | Post-emergence herbicidal activity, A. theophrasti (grade) ([1]; dosage 5 g/mu) | Post-emergence herbicidal activity, A. theophrasti (grade) ([1]; dosage 10 g/mu) | Post-emergence herbicidal activity, E. crusgalli (grade) ([2]; dosage 2.5 g/mu) | Post-emergence herbicidal activity, E. crusgalli (grade) ([2]; dosage 5 g/mu) | Post-emergence herbicidal activity, E. crusgalli (grade) ([2]; dosage 10 g/mu) | Post-emergence herbicidal activity, P. oleracea (grade) ([3]; dosage 2.5 g/mu) | Post-emergence herbicidal activity, P. oleracea (grade) ([3]; dosage 5 g/mu) | Post-emergence herbicidal activity, P. oleracea (grade) ([3]; dosage 10 g/mu) | Post-emergence herbicidal activity, S. viridis (grade) ([4]; dosage 2.5 g/mu) | Post-emergence herbicidal activity, S. viridis (grade) ([4]; dosage 5 g/mu) | Post-emergence herbicidal activity, S. viridis (grade) ([4]; dosage 10 g/mu) | Post-emergence herbicidal activity, A. retroflexus (grade) ([5]; dosage 2.5 g/mu) | Post-emergence herbicidal activity, A. retroflexus (grade) ([5]; dosage 5 g/mu) | Post-emergence herbicidal activity, A. retroflexus (grade) ([5]; dosage 10 g/mu) | Post-emergence herbicidal activity, Trifoliumre pensL. (grade) ([6]; dosage 2.5 g/mu) | Post-emergence herbicidal activity, Trifoliumre pensL. (grade) ([6]; dosage 5 g/mu) | Post-emergence herbicidal activity, Trifoliumre pensL. (grade) ([6]; dosage 10 g/mu)
2-(4-chloro-2-fluoro-5-(2-oxo-2-(4-methyl)ethoxy)phenyl)-4,5,6,7-tetrahydro-1H-isoindole-1,3(2H)-dione [Compound C2] | 5 (Grade 5: the growth control rate is greater than or equal to 85%) | 5 (Grade 5: the growth control rate is greater than or equal to 85%) | 5 (Grade 5: the growth control rate is greater than or equal to 85%) | 1 (Grade 1: the growth control rate is greater than or equal to 5% and less than 20%) | 2 (Grade 2: the growth control rate is greater than or equal to 20% and less than 40%) | 3 (Grade 3: the growth control rate is greater than or equal to 40% and less than 60%) | 5 (Grade 5: the growth control rate is greater than or equal to 85%) | 5 (Grade 5: the growth control rate is greater than or equal to 85%) | 5 (Grade 5: the growth control rate is greater than or equal to 85%) | 2 (Grade 2: the growth control rate is greater than or equal to 20% and less than 40%) | 3 (Grade 3: the growth control rate is greater than or equal to 40% and less than 60%) | 4 (Grade 4: the growth control rate is greater than or equal to 60% and less than 85%) | 5 (Grade 5: the growth control rate is greater than or equal to 85%) | 5 (Grade 5: the growth control rate is greater than or equal to 85%) | 5 (Grade 5: the growth control rate is greater than or equal to 85%) | 5 (Grade 5: the growth control rate is greater than or equal to 85%) | 5 (Grade 5: the growth control rate is greater than or equal to 85%) | 5 (Grade 5: the growth control rate is greater than or equal to 85%)
O=C1C2=C(CCCC2)C(=O)N1c1cc(OCc2nc(-c3cccc(Cl)c3)no2)c(Cl)cc1F [Compound A3] | 5 (Grade 5: the growth control rate is greater than or equal to 85%) | 5 (Grade 5: the growth control rate is greater than or equal to 85%) | 5 (Grade 5: the growth control rate is greater than or equal to 85%) | 1 (Grade 1: the growth control rate is greater than or equal to 5% and less than 20%) | 2 (Grade 2: the growth control rate is greater than or equal to 20% and less than 40%) | 3 (Grade 3: the growth control rate is greater than or equal to 40% and less than 60%) | 4 (Grade 4: the growth control rate is greater than or equal to 60% and less than 85%) | 5 (Grade 5: the growth control rate is greater than or equal to 85%) | 5 (Grade 5: the growth control rate is greater than or equal to 85%) | 2 (Grade 2: the growth control rate is greater than or equal to 20% and less than 40%) | 3 (Grade 3: the growth control rate is greater than or equal to 40% and less than 60%) | 4 (Grade 4: the growth control rate is greater than or equal to 60% and less than 85%) | 5 (Grade 5: the growth control rate is greater than or equal to 85%) | 5 (Grade 5: the growth control rate is greater than or equal to 85%) | 5 (Grade 5: the growth control rate is greater than or equal to 85%) | 4 (Grade 4: the growth control rate is greater than or equal to 60% and less than 85%) | 5 (Grade 5: the growth control rate is greater than or equal to 85%) | 5 (Grade 5: the growth control rate is greater than or equal to 85%)
O=C1C2=C(CCCC2)C(=O)N1c1cc(OCc2nc(-c3ccccc3Br)no2)c(Cl)cc1F [Compound A4] | 5 (Grade 5: the growth control rate is greater than or equal to 85%) | 5 (Grade 5: the growth control rate is greater than or equal to 85%) | 5 (Grade 5: the growth control rate is greater than or equal to 85%) | 1 (Grade 1: the growth control rate is greater than or equal to 5% and less than 20%) | 2 (Grade 2: the growth control rate is greater than or equal to 20% and less than 40%) | 3 (Grade 3: the growth control rate is greater than or equal to 40% and less than 60%) | 4 (Grade 4: the growth control rate is greater than or equal to 60% and less than 85%) | 5 (Grade 5: the growth control rate is greater than or equal to 85%) | 5 (Grade 5: the growth control rate is greater than or equal to 85%) | 2 (Grade 2: the growth control rate is greater than or equal to 20% and less than 40%) | 3 (Grade 3: the growth control rate is greater than or equal to 40% and less than 60%) | 4 (Grade 4: the growth control rate is greater than or equal to 60% and less than 85%) | 5 (Grade 5: the growth control rate is greater than or equal to 85%) | 5 (Grade 5: the growth control rate is greater than or equal to 85%) | 5 (Grade 5: the growth control rate is greater than or equal to 85%) | 4 (Grade 4: the growth control rate is greater than or equal to 60% and less than 85%) | 5 (Grade 5: the growth control rate is greater than or equal to 85%) | 5 (Grade 5: the growth control rate is greater than or equal to 85%)
